Source: patent US20110237626A1, “COMPOSITIONS FOR HYGIENIC HAND DISINFECTION AND DISINFECTANT HANDWASHING” (AIR LIQUIDE SANTE (INTERNATIONAL), priority 2005, published 2011)

solubility in water: 0.1 % by weight
Structure (SMILES): CCCCC(CC)COCC(O)CO (stereo not shown) [1-(2-ethylhexyl)glycerol ether, 1-(2-Ethylhexyl)-glycerol ether]
